This note sets out measurements from patent EP0637237B1, “CALCIUM RECEPTOR-ACTIVE MOLECULES” (BRIGHAM AND WOMEN'S HOSPITAL, INC., priority 1993, dated 1994).

Each structure is given as a SMILES string.

For the assay, the target named is T1, C-cell Ca^2+ receptor (Rattus norvegicus, UniProt P48442).
T1 sequence (P48442 20-1079): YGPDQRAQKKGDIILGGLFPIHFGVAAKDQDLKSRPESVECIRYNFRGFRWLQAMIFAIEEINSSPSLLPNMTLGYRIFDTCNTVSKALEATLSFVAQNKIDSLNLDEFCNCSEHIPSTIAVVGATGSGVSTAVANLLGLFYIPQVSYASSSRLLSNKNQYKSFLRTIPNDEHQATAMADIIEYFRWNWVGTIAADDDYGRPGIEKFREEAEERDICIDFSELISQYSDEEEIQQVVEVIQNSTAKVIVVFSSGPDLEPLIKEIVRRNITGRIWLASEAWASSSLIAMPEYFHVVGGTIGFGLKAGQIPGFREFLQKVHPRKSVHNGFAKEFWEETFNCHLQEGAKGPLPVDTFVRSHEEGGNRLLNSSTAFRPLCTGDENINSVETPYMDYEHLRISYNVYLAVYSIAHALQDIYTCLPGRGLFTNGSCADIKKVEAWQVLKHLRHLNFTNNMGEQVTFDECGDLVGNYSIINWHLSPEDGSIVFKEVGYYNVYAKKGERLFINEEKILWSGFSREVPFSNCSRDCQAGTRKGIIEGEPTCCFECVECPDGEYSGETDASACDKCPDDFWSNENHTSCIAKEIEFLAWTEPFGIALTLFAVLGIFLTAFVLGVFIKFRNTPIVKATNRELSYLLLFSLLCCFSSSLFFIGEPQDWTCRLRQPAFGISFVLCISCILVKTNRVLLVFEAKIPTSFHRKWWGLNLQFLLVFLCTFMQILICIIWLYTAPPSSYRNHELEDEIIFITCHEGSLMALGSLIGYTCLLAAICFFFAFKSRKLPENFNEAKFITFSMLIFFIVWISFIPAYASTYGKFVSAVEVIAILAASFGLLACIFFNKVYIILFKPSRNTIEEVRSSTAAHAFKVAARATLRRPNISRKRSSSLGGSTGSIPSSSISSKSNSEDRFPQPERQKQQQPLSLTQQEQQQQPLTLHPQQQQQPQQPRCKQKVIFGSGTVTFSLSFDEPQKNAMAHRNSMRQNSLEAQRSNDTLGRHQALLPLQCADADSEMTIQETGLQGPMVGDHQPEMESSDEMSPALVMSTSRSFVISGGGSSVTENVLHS
The assay is classed as cell-based. Conditions: spermine 10 mM, neomycin B 5 mM.

For `NC[C@@H]1O[C@H](O[C@H]2[C@@H](O)[C@H](O[C@@H]3[C@@H](O)[C@H](N)C[C@H](N)[C@H]3O[C@H]3O[C@H](CN)[C@@H](O)[C@H](O)[C@H]3N)O[C@@H]2CO)[C@H](N)[C@@H](O)[C@@H]1O` [neomycin B], the “effect on basal [Ca2+]i” value is “without effect on basal [Ca^2+]i”.
